This experiment deals with soluble guanylate cyclase (human GUCYA3 and GUCYB3) overexpressed in CHO cells (Homo sapiens (Human), UniProt Q02108+Q02153). Description: CHO cellular assay (cGMP production, Cisbio cGMP HTRF kit). The format is cell-based. Conditions: CHO GUCY clone 8E10, cGMP production, assay buffer with 1 mM IBMX and 20 uM ODQ, 1 h room temperature; minimum quantification limit 0.5 nM (listed 0.5 nM means ≤0.5 nM); read-out: EC50. The method, boiled down:
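EC50 was derived by 4-parameter sigmoidal fit of cGMP levels, read by HTRF against a standard curve. Compounds were applied for 1 h at room temperature, in buffer with 20 uM ODQ, 1 mM IBMX and 0.1% BSA (0.5% DMSO final). The cells were a stable CHO-K1 line (clone 8E10) overexpressing human GUCYA3 and GUCYB3, seeded at 3000/well.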
On the technique in general: TR-FRET usually uses a lanthanide donor and a delayed reading to cut background.
soluble guanylate cyclase (human GUCYA3 and GUCYB3) overexpressed in CHO cells, sequence (Q02108 whole entry partner): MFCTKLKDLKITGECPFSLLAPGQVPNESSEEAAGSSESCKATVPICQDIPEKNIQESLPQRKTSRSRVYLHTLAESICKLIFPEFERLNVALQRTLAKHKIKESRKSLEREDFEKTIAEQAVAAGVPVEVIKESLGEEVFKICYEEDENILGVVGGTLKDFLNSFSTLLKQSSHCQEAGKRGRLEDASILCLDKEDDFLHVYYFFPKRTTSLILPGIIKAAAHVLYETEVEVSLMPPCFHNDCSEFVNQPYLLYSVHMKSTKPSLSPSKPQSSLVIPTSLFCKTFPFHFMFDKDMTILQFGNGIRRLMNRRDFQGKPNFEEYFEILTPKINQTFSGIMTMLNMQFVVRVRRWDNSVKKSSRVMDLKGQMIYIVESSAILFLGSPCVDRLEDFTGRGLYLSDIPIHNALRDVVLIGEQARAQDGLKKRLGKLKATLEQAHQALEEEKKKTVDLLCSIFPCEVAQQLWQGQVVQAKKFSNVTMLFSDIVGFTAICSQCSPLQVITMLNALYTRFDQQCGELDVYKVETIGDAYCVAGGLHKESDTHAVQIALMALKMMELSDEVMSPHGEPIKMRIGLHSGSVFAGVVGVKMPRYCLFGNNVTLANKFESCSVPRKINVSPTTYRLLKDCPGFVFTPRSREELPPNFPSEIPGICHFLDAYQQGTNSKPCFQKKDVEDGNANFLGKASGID
soluble guanylate cyclase (human GUCYA3 and GUCYB3) overexpressed in CHO cells, sequence (Q02153 whole entry): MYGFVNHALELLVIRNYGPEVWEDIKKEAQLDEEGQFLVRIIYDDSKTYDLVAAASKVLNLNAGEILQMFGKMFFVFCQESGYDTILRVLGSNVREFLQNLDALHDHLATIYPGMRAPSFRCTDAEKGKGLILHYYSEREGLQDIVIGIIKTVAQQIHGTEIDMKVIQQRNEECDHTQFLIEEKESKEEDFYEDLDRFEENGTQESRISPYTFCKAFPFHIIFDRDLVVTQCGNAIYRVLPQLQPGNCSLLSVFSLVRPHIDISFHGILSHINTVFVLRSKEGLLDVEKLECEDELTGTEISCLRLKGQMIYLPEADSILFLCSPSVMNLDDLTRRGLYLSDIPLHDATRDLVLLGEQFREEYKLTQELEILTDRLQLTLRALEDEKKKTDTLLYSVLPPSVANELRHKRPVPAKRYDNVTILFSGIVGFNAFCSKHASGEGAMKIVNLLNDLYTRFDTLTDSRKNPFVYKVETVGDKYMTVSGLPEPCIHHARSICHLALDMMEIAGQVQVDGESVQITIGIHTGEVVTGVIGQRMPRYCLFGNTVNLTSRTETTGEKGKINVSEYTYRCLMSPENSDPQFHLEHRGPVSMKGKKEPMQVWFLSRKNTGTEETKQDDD
Usually EC50 stands for the concentration needed to bring the measured effect to its halfway point. Take `CCc1cc(NC2COc3cccc(-c4cccc(-n5ncc(C(=O)O)c5C(F)(F)F)n4)c32)ccc1C1CCN(C(=O)C2CC2)CC1` (single isomer, unassigned; (-)) [(−)-36-1, (−)-1-(6-(3-((4-(1-(Cyclopropanecarbonyl)piperidin-4-yl)-3-ethylphenyl)amino)-2,3-dihydrobenzofuran-4-yl)pyridin-2-yl)-5-(trifluoromethyl)-1H-pyrazole-4-carboxylic acid]: the EC50 was 0.02 µM.
In the case of `CCc1cc(NC2COc3cccc(-c4cccc(-n5ncc(C(=O)O)c5CC)n4)c32)ccc1C1CCN(C(=O)C2CC2)CC1` (single isomer, unassigned; (-)) [(−)-36-2, (−)-1-(6-(3-((4-(1-(Cyclopropanecarbonyl)piperidin-4-yl)-3-ethylphenyl)amino)-2,3-dihydrobenzofuran-4-yl)pyridin-2-yl)-5-ethyl-1H-pyrazole-4-carboxylic acid], the EC50 was 0.001 µM.
For the compound `Cc1cc(C2CCN(C(=O)C(C)C)CC2)ccc1NC1CCc2cccc(-c3cccc(-n4ncc(C(=O)O)c4C)n3)c21` (single isomer, unassigned; (-)) [(−)-46-1, (−)-1-(6-(3-((4-(1-isobutyrylpiperidin-4-yl)-2-methylphenyl)amino)-2,3-dihydro-1H-inden-4-yl)pyridin-2-yl)-5-methyl-1H-pyrazole-4-carboxylic acid], the EC50 came to 0.1 µM.
In the case of `CCC(=O)N1CCC(c2ccc(NC3CCc4cccc(-c5cccc(-n6ncc(C(=O)O)c6C)n5)c43)c(C)c2)CC1` (single isomer, unassigned; (-)) [(−)-46-2], the EC50 came to 0.16 µM.
With `Cc1cc(C2CCN(C(=O)CC3CC3)CC2)ccc1NC1CCc2cccc(-c3cccc(-n4ncc(C(=O)O)c4C)n3)c21` (single isomer, unassigned; (-)) [(−)-46-3, (−)-1-(6-(3-((4-(1-(2-Cyclopropylacetyl)piperidin-4-yl)-2-methylphenyl)amino)-2,3-dihydro-1H-inden-4-yl)pyridin-2-yl)-5-methyl-1H-pyrazole-4-carboylic acid] the figure was 0.303 µM; with `Cc1cc(C2CCN(C(=O)CC3CC3)CC2)c(F)cc1NC1CCc2cccc(-c3cccc(-n4ncc(C(=O)O)c4C)n3)c21` (single isomer, unassigned; (-)) [(−)-46-5, (−)-1-(6-(3-((4-(1-(2-Cyclopropylacetyl)piperidin-4-yl)-5-fluoro-2-methylphenyl)amino)-2,3-dihydro-1H-inden-4-yl)pyridin-2-yl)-5-methyl-1H-pyrazole-4-carboxylic acid], 0.681 µM; with `CCOC(=O)N1CCC(c2ccc(NC3CCc4cccc(-c5cccc(-n6ncc(C(=O)O)c6CC)n5)c43)cc2CC)CC1` (single isomer, unassigned; (-)) [(−)-52-1, (−)-1-(6-(3-((4-(1-(Ethoxycarbonyl)piperidin-4-yl)-3-ethylphenyl)amino)-2,3-dihydro-1H-inden-4-yl)pyridin-2-yl)-5-ethyl-1H-pyrazole-4-carboxylic acid], 0.019 µM.
Then `CCc1cc(NC2CCc3cccc(-c4cccc(-n5ncc(C(=O)O)c5CC)n4)c32)ccc1C1CCN(C(=O)OC)CC1` (single isomer, unassigned; (-)) [(−)-52-2, (−)-5-Ethyl-1-(6-(3-((3-ethyl-4-(1-(methoxycarbonyl)piperidin-4-yl)phenyl)amino)-2,3-dihydro-1H-inden-4-yl)pyridin-2-yl)-1H-pyrazole-4-carboxylic acid], with 0.001 µM; and `C=CCOC(=O)N1CCC(c2ccc(NC3CCc4cccc(-c5cccc(-n6ncc(C(=O)O)c6CC)n5)c43)cc2CC)CC1` (single isomer, unassigned; (-)) [(−)-52-3, (−)-1-(6-(3-((4-(1-((Allyloxy)carbonyl)piperidin-4-yl)-3-ethylphenyl)amino)-2,3-dihydro-1H-inden-4-yl)pyridin-2-yl)-5-ethyl-1H-pyrazole-4-carboxylic acid], with 0.003 µM; and `CCc1cc(NC2CCc3cccc(-c4cccc(-n5ncc(C(=O)O)c5CC)n4)c32)ccc1C1CCN(C(=O)C2CC2)CC1` (single isomer, unassigned; (-)) [(−)-53-1, (−)-1-(6-(3-((4-(1-(cyclopropanecarbonyl)piperidin-4-yl)-3-ethylphenyl)amino)-2,3-dihydro-1H-inden-4-yl)pyridin-2-yl)-5-ethyl-1H-pyrazole-4-carboxylic acid], with 0.021 µM.
With `Cc1cc(C2CCN(C(=O)CC3CC3)CC2)cc(F)c1NC1CCc2cccc(-c3cccc(-n4ncc(C(=O)O)c4C)n3)c21` (single isomer, unassigned; (-)) [(−)-53-3, (−)-1-(6(3-((4-(1-(2-cyclopropylacetyl)piperidin-4-yl)-2-fluoro-6-methylphenyl)amino)-2,3-dihydro-1H-inden-4-yl)pyridin-2-yl)-5-methyl-1H-pyrazole-4-carboxylic acid] the figure was 0.059 µM; with `Cc1cc(C2CCN(C(=O)C3CC3)CC2)ccc1NC1CCc2cccc(-c3cccc(-n4ncc(C(=O)O)c4C(F)F)n3)c21` (single isomer, unassigned; (-)) [(−)-53-4, (−)-1-(6-(3-((4-(1-(cyclopropanecarbonyl)piperidin-4-yl)-2-methylphenyl)amino)-2,3-dihydro-1H-inden-4-yl)pyridin-2-yl)-5-(difluoromethyl)-1H-pyrazole-4-carboxylic acid], 0.024 µM.
With `Cc1cc(C2CCN(C(=O)C3CC3)CC2)ccc1NC1CCc2cccc(-c3cccc(-n4ncc(C(=O)O)c4C(F)(F)F)c3)c21` (single isomer, unassigned; (-)) [Example 6. b). (−), (−)-1-(3-(3-((4-(1-(cyclopropanecarbonyl)piperidin-4-yl)-2-methylphenyl)amino)-2,3-dihydro-1H-inden-4-yl)phenyl)-5-(trifluoromethyl)-1H-pyrazole-4-carboxylic acid], the EC50 is 0.024 µM.
Consider `Cc1cc(C2CCN(C(=O)C3CC3)CC2)ccc1NC1CCc2cccc(-c3cccc(-n4ncc(C(=O)O)c4C)n3)c21` (single isomer, unassigned; (-)) [Example 7b, (−)-1-(6-(3-((4-(1-(Cyclopropanecarbonyl)piperidin-4-yl)-2-methylphenyl)amino)-2,3-dihydro-1H-inden-4-yl)pyridin-2-yl)-5-methyl-1H-pyrazole-4-carboxylic Acid], for which the EC50 is 0.0024 µM.
Then `Cc1c(C(=O)O)cnn1-c1cccc(-c2cccc3c2C(Nc2ccc(C4CCN(C(=O)C5CC5)CC4)cc2)CC3)n1` (single isomer, unassigned; (-)) [Example 9. b). (−), (−)-1-(6-(3-((4-(1-(cyclopropanecarbonyl)piperidin-4-yl)phenyl)amino)-2,3-dihydro-1H-inden-4-yl)pyridin-2-yl)-5-methyl-1H-pyrazole-4-carboxylic acid], with 0.184 µM; and `CCc1c(C(=O)O)cnn1-c1cccc(-c2cccc3c2C(Nc2ccc(C4CCN(C(=O)C5CC5)CC4)cc2C)CC3)n1` (single isomer, unassigned; (-)) [Example 10b, (−)-1-(6-(3-((4-(1-(Cyclopropanecarbonyl)piperidin-4-yl)-2-methylphenyl)amino)-2,3-dihydro-1H-inden-4-yl)pyridin-2-yl)-5-ethyl-1H-pyrazole-4-carboxylic Acid], with 0.049 µM; and `Cc1cc(C2CCN(C(=O)C3CC3)CC2)ccc1NC1COc2cccc(-c3cccc(-n4ncc(C(=O)O)c4C)n3)c21` (single isomer, unassigned; (-)) [Example 34b], with 0.0039 µM.
Take `Cc1cc(C2CCN(C(=O)[C@H](C)O)CC2)ccc1NC1COc2cccc(-c3cccc(-n4ncc(C(=O)O)c4C)n3)c21` (single isomer, unassigned; (-)) [Example 35b]: the EC50 turned out to be 0.017 µM.
With `Cc1cc(C2CCN(C(=O)C3CC3)CC2)ccc1CC1CCc2cccc(-c3cccc(-n4ncc(C(=O)O)c4C)n3)c21` (single isomer, unassigned; (-)) [Example 37. b). (−), (−)-1-(6-(3-(4-(1-(cyclopropanecarbonyl)piperidin-4-yl)-2-methylbenzyl)-2,3-dihydro-1H-inden-4-yl)pyridin-2-yl)-5-methyl-1H-pyrazole-4-carboxylic Acid] the figure was 0.0063 µM; with `CCc1cc(CC2CCc3cccc(-c4cccc(-n5ncc(C(=O)O)c5CC)n4)c32)ccc1C1CCN(C(=O)[C@H](C)O)CC1` (single isomer, unassigned; (-)) [Example 39. b). (−)], 0.001 µM.
For `CCc1cc(CC2CCc3cccc(-c4cccc(-n5ncc(C(=O)O)c5CC)n4)c32)ccc1C1CCN(C(=O)OC)CC1` (single isomer, unassigned; (-)) [Example 41. b). (−), (−)-5-ethyl-1-(6-(3-(3-ethyl-4-(1-(methoxycarbonyl)piperidin-4-yl)benzyl)-2,3-dihydro-1H-inden-4-yl)pyridin-2-yl)-1H-pyrazole-4-carboxylic acid], the concentration for a half-maximal effect (EC50) was determined as 0.018 µM.
With `CCc1c(C(=O)O)cnn1-c1cccc(-c2cccc3c2C(Cc2ccc(C4CCN(C(=O)OC)CC4)cc2C)CC3)n1` (single isomer, unassigned; (-)) [Example 42. b). (−), (−)-5-ethyl-1-(8-(3-(4-(1-(methoxycarbonyl)piperidin-4-yl)-2-methylbenzyl)-2,3-dihydro-1H-inden-4-yl)pyridin-2-yl)-1H-pyrazole-4-carboxylic acid] the figure was 0.093 µM; with `Cc1cc(C2CCN(C(=O)C3CCC3)CC2)ccc1NC1CCc2cccc(-c3cccc(-n4ncc(C(=O)O)c4C)n3)c21` (single isomer, unassigned; (-)) [Example 45b], 0.0035 µM.
Then `Cc1cc(C2CCN(C(=O)[C@H](C)O)CC2)ccc1NC1CCc2cccc(-c3cccc(-n4ncc(C(=O)O)c4C)n3)c21` (single isomer, unassigned; (-)) [Example 47b], with 0.027 µM.

The record behind these values is US10550102B2, “Indane and indoline derivatives and the use thereof as soluble guanylate cyclase activators” (NOVARTIS AG, priority 2014, dated 2020).
